# Assay results taken from US9487749B2 (priority 2009, dated 2016).
# Entries after “also recorded” stand apart in the source; their conditions may differ.
# Experiments:
# [1] = system: Escherichia coli (ATCC strain 8739); experiment: E. coli growth profile in sterile and non-sterile MSM in TSB or saline (USP <51> AET basis, MacConkey agar streak); conditions: for Growth profile of E. coli: 5-16% MSM
# Description: The USP <51> AET is a compendial (United States Pharmacopeia) antimicrobial effectiveness test method for determining if a preservative is effective based upon a verified and validated methodology.
# All tubes except the negative controls were spiked with 250 μl of a 1.2×10^8 culture, which yields an initial E. coli population density of 1.2×10^6/mL. Tubes were incubated at 25° C.
# [2] = system: MDCK cells (ATCC # CCL-34); experiment: Cytotoxicity of MSM on host cells; conditions: for Test Product Cytotoxicity: MDCK
# Description: Determination of test product cytotoxicity. The highest non-cytotoxic concentration of the test product was determined prior to the test.
# B. Toxicity Control for Pre-Treatment Test.
# [3] = system: Streptococcus Pneumonia
# [4] = system: Bacillus coagulans; experiment: Viability and colony formation of Bacillus coagulans supplemented with MSM (population count, weight, percent transmittance); type: cell-based; conditions: for Population Count Average / Population Weight Average: 72 hours; for Population Weight Average: washed pellet; for percent transmittance: 25×25 mm agar section, 546 nm
# Description: At the end of the 72 hours, the broth was measured for colony formation, with photographic documentation of colony formation on tryptic soy agar. […] For the Bacillus coagulans, the organism was isolated and grown for 24 hours before harvesting. […] One milliliter of Dilution B was used to inoculate the 30 mL of TSB concentrations stated above. […] Each dilution for the microorganism was plated in triplicate for each sample. To capture the appropriate colonies per milliliter, the microorganism was plated at six different dilutions. […] The population count was based on the dilution of the tryptic soy broth after 72 hours and inoculation on to tryptic soy agar plates. The plates were incubated for 48 hours and enumerated. The tryptic soy broth after 72 hours was centrifuged down in a conical vial. The supernatant was pulled off and the pellet was washed. The centrifuging and washing was repeated three times. At the end of the third wash, the vials with pellet were weighed. Each vial was weighed empty and recorded. The corresponding vial weight was then subtracted from the ending weight of the pellet and vial, to get the weight of the Bacillus coagulans population. […] The slides were sealed to prevent the agar plug from slipping. The wavelength was set at 546 nm, and two empty slides were used as a blank. […] The weights indicated a heavier growth or a colony that was larger in size adding to the weight of the biomass. The percent transmittance was used to indicate Bacillus coagulans colony size in which a decrease in transmittance indicates an increase in colony size as the colony inhibited light from passing through the agar. […] It was observed that the percent transmittance result may be influenced by the sample size, sample location and agar variables.
# [5] = system: White Labs Edinburgh Ale yeast; experiment: Fermentation efficiency in production of beer (Scotch Ale) with 0.5% MSM; type: cell-based; conditions: for F.G. (Adjusted for Alc and Temp): 0.5% MSM fermentor
# Source text: This positive impact includes such organisms as fungi, yeast, and bacteria. Yeast cultures are involved in the production of beer during the fermentation process to produce ethanol and carbon dioxide. […] Wort is the liquid extracted from the mashing process during the brewing of beer or whisky. Wort contains the sugars that are fermented by the brewing yeast to produce alcohol. […] This Procedure is detailed below. […] (1) glass jugs, airlocks and funnel were thoroughly cleaned and then rinsed with beer sanitizer; (2) 1000 mLs of water was boiled then 100 grams of DME was added; (3) sample was boiled for 10 minutes; […] The Treatment Starter batch was then placed in a sanitized 64 ounce glass jug using to which 1-vial of White Labs Edinburgh Ale yeast was added. The airlock was applied and the entire vessel was placed in a dark room at room temperature for 48 hours. […] (1) glass jugs, airlocks and funnel were thoroughly cleaned and then rinsed with beer sanitizer; (2) 1000 mLs of water was boiled then 100 grams of DME was added; (3) sample was boiled for 10 minutes; (4) sample was removed from heat; and (5) solution was allowed to cool to 72° F. The Treatment Starter batch was then placed in a sanitized 64 ounce glass jug using to which 1-vial of White Labs Edinburgh Ale yeast was added. The airlock was applied and the entire vessel was placed in a dark room at room temperature for 48 hours. […] Materials to prepare the mash included the following: 18 lb of American 2-Row base grain; 3 lb of Crystal Malt 40 L specialty grain; 1 lb […] specialty grain; and water. A mash tun (a vessel used in the mashing process to convert the starches in crushed grains into sugars for fermentation) and Brew kettle were cleaned with powdered brewers wash and rinsed thoroughly. The mash tun was then sanitized (San Star Brewing Sanitizer). The following grains were crushed and milled for mashing: 18 lb of American 2-Row base grain; 3 lb of Crystal Malt 40 L specialty grain; and 1 lb […] specialty grain. […] The crushed grains were then added and the solution was mixed thoroughly. The lid was attached and the solution allowed to mash for 60 minutes. […] Strike water was preheated to 168° F., added to the mash tun and mix thoroughly with grain. The mixture was allowed to incubate for 10 minutes. […] After preparing the mash, the brewing process was started. […] Equipment was cleaned thoroughly with PBW. The wort chiller and filtered air stone were sanitized with brewing sanitizer (San Star Brewing Sanitizer). […] At 30 minutes of boil, a second aliquot (0.5 ounces) of Cascade hops was added. At 40 minutes of boil, third aliquot (0.5 ounces) of Cascade hops was added as well as 2 teaspoons of […] Moss. At 50 minutes of boil, a fourth aliquot (0.5 ounces) of Cascade hops was added. […] Each fermentor was Brix tested every 24 hours for 21 days. Both fermentors were aerated for 25 minutes with sanitized filtered air stone. MSM infused yeast was pitched into treatment fermentor vessel while unaltered yeast was pitched into control fermentor vessel. Blow-off tubes were attached to both fermentors and fermentation was allowed to proceed for 21 days.
smiles,measurement,setting,value
"CS(C)(=O)=O [MSM, Methylsulfonylmethane]",visual signs of growth in culture tubes,"[1]; 5-9% MSM in TSB/TSBA media, 24 hours",visible signs of growth
same,visual signs of growth in culture tubes,"[1]; 5-10% MSM in TSB/TSBA, 48 hours, 72 hours",signs of heavy growth
same,visual signs of growth in culture tubes,"[1]; 10-16% MSM in TSB/TSBA media, 24 hours",no signs of growth
same,visual signs of growth in culture tubes,"[1]; 11% MSM in TSB/TSBA, 48 hours, 72 hours",Apparent growth
same,visual signs of growth in culture tubes,"[1]; 12-15% MSM in TSB/TSBA, 48 hours, 72 hours",little to no observable signs of growth
same,visual signs of growth in culture tubes,"[1]; MSM in saline tubes, 24 hours",did not show any signs of growth
same,Growth profile of E. coli,"[1]; after 24 hours, NS (sterile saline added to non-sterile MSM)",Heavy; also recorded: Moderate
same,Growth profile of E. coli,"[1]; after 24 hours, NSA (saline + MSM, then sterilized)",Heavy; also recorded: Moderate
same,Growth profile of E. coli,"[1]; after 24 hours, TSB (sterile TSB added to non-sterile MSM)",Heavy and Moderate and Few
same,Growth profile of E. coli,"[1]; after 24 hours, TSBA (TSB + MSM, then sterilized)",Heavy and Moderate and Few
same,Growth profile of E. coli,"[1]; after 48 hours, NS",Heavy; also recorded: Moderate
same,Growth profile of E. coli,"[1]; after 48 hours, NSA",Heavy; also recorded: Moderate
same,Growth profile of E. coli,"[1]; after 48 hours, TSB",Heavy and Moderate and Few
same,Growth profile of E. coli,"[1]; after 48 hours, TSBA",Heavy and Moderate and Few
same,Growth profile of E. coli,"[1]; after 72 hours, NS",Heavy; also recorded: Moderate
same,Growth profile of E. coli,"[1]; after 72 hours, NSA",Heavy; also recorded: Moderate
same,Growth profile of E. coli,"[1]; after 72 hours, TSB",Heavy and Moderate and Few
same,Growth profile of E. coli,"[1]; after 72 hours, TSBA",Heavy and Moderate and Few
same,Test Product Cytotoxicity,[2]; 0.5%,00
same,Test Product Cytotoxicity,[2]; 1%,00
same,Test Product Cytotoxicity,[2]; 2%,00
same,Test Product Cytotoxicity,[2]; 3%,00
same,Test Product Cytotoxicity,[2]; 4%,00
same,Test Product Cytotoxicity,[2]; 5%,00
same,cytotoxic effect,[2]; MSM concentrations 6% through 0.5%,no visible cytotoxic effect
same,reduction of viability,[3],approximately 5%
same,Population Count Average,[4]; 1.0% MSM in TSB,1.01 × 10^11
same,Population Weight Average,[4]; 1.0% MSM in TSB,0.1363
same,percent transmittance,[4]; 1.0% MSM,51.5%
same,Population Count Average,[4]; 5.0% MSM in TSB,2.8 × 10^11
same,Population Weight Average,[4]; 5.0% MSM in TSB,0.1260
same,percent transmittance,[4]; 5.0% MSM,45.6%
same,Population Count Average,[4]; […] MSM in TSB,3.3 × 10^11
same,Population Weight Average,[4]; […] MSM in TSB,0.9828
same,percent transmittance,[4]; […] MSM,49.8%
same,F.G. (Adjusted for Alc and Temp),[5]; Day 1,1.026
same,F.G. (Adjusted for Alc and Temp),[5]; Day 2,1.018
same,F.G. (Adjusted for Alc and Temp),[5]; Day 3,1.016
same,F.G. (Adjusted for Alc and Temp),[5]; Day 4,1.016
same,F.G. (Adjusted for Alc and Temp),[5]; Day 5,1.015
same,F.G. (Adjusted for Alc and Temp),[5]; Day 6,1.015
same,F.G. (Adjusted for Alc and Temp),[5]; Day 7,1.015
same,F.G. (Adjusted for Alc and Temp),[5]; Day 8,1.015
same,F.G. (Adjusted for Alc and Temp),[5]; Day 9,1.015
same,F.G. (Adjusted for Alc and Temp),[5]; Day 10,1.015
same,F.G. (Adjusted for Alc and Temp),[5]; Day 11,1.015
same,F.G. (Adjusted for Alc and Temp),[5]; Day 12,1.015
same,F.G. (Adjusted for Alc and Temp),[5]; Day 13,1.015
same,F.G. (Adjusted for Alc and Temp),[5]; Day 14,1.015
same,F.G. (Adjusted for Alc and Temp),[5]; Day 15,1.015
same,F.G. (Adjusted for Alc and Temp),[5]; Day 16,1.015
same,F.G. (Adjusted for Alc and Temp),[5]; Day 17,1.015
same,F.G. (Adjusted for Alc and Temp),[5]; Day 18,1.015
same,F.G. (Adjusted for Alc and Temp),[5]; Day 19,1.015
same,F.G. (Adjusted for Alc and Temp),[5]; Day 20,1.015
same,F.G. (Adjusted for Alc and Temp),[5]; Day 21,1.015
same,time to maximum fermentation,[5]; 0.5% MSM treatment batch,5 days
same,sooner time of completion,[5]; 0.5% MSM treatment batch vs control (6 days),17-25%
same,time to activity,[5]; fermentor with 0.5% MSM,3.5 h
same,activity sooner than the control,[5]; fermentor with 0.5% MSM (3.5 hours compared to 9 hours),58%
same,activity sooner than the control,[5]; yeast starter with 0.5% MSM (2 hours compared to 10 hours),80%
